Laboratory results reported in ChEMBL document CHEMBL5291721, “A preclinical secondary pharmacology resource illuminates target-adverse drug reaction associations of marketed drugs” (Nat Commun, 2023).
*1 amine or outer side, *2 acyl side, *3 side chain or, on linkers, in order; H or OH if unused. Where a SMILES comes first, the peptide text is derived from it. Bridges are numbered along the chain shown (N, C = ends). [ ]: non-standard residue; d: D form. The star is where a group is joined. hTyr(3S-OH,4S-OH,3'-OSO3H) = N[C@H](C(=O)O)[C@H](O)[C@@H](O)c1ccc(O)c(OS(=O)(=O)O)c1; Orn(4R-OH,5R-OH) = O=C([C@H](C[C@@H](O)[C@@H](O)N[*:3])N[*:1])[*:2]; Pro(3S-OH,4S-Me) = C[C@H]1CN[C@H](C(=O)O)[C@H]1O; X1 = CCCCCOc1ccc(-c2cc(-c3ccc(C(=O)*)cc3)no2)cc1; Gln(3R-OH) = NC(=O)C[C@@H](O)[C@H](N)C(=O)O; Hyp = O=C(O)[C@@H]1C[C@@H](O)CN1

Experiments:
[1] = molecular target: T1, Alpha-1A adrenergic receptor (Homo sapiens, UniProt P35348); type: functional, cell-based
T1 sequence (P35348 whole entry): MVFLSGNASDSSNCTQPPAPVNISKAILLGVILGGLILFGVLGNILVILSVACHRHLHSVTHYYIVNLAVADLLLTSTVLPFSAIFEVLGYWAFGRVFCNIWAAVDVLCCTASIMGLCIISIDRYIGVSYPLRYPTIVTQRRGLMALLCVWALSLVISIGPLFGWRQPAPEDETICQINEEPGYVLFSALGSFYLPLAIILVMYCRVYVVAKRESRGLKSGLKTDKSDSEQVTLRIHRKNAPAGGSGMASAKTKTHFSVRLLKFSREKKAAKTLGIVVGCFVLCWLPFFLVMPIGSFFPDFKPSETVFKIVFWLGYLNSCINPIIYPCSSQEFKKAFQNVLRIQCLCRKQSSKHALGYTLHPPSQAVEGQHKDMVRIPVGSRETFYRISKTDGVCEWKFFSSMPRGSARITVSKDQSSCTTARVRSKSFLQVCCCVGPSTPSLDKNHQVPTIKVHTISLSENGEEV

[2] = molecular target: Vascular endothelial growth factor receptor 2 (Homo sapiens, UniProt P35968); type: functional
Further: assay procedure not described here.

Sequence of Vascular endothelial growth factor receptor 2 (P35968 whole entry): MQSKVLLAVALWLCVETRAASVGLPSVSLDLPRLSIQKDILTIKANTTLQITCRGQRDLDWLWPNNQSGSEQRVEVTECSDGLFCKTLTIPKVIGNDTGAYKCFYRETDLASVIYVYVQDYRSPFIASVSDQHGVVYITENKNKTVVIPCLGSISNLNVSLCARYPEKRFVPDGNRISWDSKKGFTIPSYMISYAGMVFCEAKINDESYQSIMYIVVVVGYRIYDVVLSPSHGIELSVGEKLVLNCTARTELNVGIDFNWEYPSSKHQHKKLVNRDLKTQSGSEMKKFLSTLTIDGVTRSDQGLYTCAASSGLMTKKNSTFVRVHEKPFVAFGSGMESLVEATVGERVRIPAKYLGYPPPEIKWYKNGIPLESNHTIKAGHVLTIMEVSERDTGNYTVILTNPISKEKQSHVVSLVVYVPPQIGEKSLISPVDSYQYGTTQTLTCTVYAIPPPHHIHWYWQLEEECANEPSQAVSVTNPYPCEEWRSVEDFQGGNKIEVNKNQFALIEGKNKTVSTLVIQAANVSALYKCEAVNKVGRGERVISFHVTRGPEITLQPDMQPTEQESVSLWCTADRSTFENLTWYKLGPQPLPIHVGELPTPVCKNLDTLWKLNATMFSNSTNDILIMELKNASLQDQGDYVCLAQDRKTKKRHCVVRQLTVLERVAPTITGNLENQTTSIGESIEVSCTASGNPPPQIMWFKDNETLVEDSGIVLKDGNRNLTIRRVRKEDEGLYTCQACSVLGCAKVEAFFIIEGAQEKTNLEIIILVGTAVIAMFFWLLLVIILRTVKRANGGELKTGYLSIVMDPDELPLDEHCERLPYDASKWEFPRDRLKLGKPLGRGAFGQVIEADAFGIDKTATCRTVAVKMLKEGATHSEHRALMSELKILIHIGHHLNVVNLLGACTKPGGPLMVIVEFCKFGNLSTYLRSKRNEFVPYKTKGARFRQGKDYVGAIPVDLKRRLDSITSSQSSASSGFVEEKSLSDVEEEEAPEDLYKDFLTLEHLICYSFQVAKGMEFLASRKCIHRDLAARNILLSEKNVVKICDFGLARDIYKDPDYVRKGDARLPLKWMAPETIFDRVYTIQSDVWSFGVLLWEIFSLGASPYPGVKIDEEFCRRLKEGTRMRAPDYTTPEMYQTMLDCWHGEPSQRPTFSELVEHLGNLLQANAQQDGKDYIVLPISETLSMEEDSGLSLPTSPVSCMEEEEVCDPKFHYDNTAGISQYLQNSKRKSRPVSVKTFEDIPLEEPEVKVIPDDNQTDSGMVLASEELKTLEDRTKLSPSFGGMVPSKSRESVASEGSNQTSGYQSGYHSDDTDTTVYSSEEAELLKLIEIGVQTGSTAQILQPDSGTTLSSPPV

SMILES | AC50 [1] [µM] | AC50 [2] [µM]
C=C1c2c(Cl)ccc(O)c2C(=O)C2=C(O)[C@]3(O)C(=O)C(C(N)=O)=C(O)[C@@H](N(C)C)[C@@H]3[C@@H](O)[C@H]12 [MECLOCYCLINE] | > 30 | > 30
NC(=O)c1nc(F)c[nH]c1=O | > 30 | > 30
N=C(N)NCc1cccc([123I])c1 [IOBENGUANE I 123] | > 30 | > 30
O=C(O)COc1nn(Cc2ccccc2)c2ccccc12 [BENDAZAC] | > 30 | > 30
Cn1c(=O)c2c(ncn2CC(O)CO)n(C)c1=O (stereo unspecified) [DYPHYLLINE] | > 30 | > 30
CN(C)C(=O)c1nc(CNC(=O)CN)n(-c2ccc(Cl)cc2C(=O)c2ccccc2Cl)n1 [RILMAZAFONE] | > 30 | > 30
NC(=O)NS(=O)(=O)c1ccc(N)cc1 [SULFACARBAMIDE] | > 30 | > 30
COc1nccnc1NS(=O)(=O)c1ccc(N)cc1 | > 30 | > 30
Cc1ccc([C@@H]2O[C@H](CO)[C@@H](O)[C@H](O)[C@H]2O)cc1Cc1ccc(-c2ccc(F)cc2)s1 [CANAGLIFLOZIN ANHYDROUS] | > 30 | > 30
CC(C)(C)C(=O)NCCCC(=O)O [PIVAGABINE] | > 30 | > 30
CN(CC(=O)O)C(=N)N [CREATINE] | > 30 | > 30
CN(C)CCN(Cc1ccc(Cl)cc1)c1ccccn1 [CHLOROPYRAMINE] | > 30 | > 30
O=C1[C@H]2CCCC[C@H]2C(=O)N1CCCCN1CCN(c2nsc3ccccc23)CC1 [PEROSPIRONE] | > 30 | > 30
O=C(O)c1cc(=O)c2ccccc2o1 [CHROMOCARB] | > 30 | > 30
CN1CCC[C@H]1c1cccnc1 [NICOTINE] | > 30 | > 30
CC1(C)O[C@@H]2C[C@H]3[C@@H]4CCC5=CC(=O)CC[C@]5(C)[C@@]4(F)[C@@H](O)C[C@]3(C)[C@]2(C(=O)CCl)O1 [HALCINONIDE] | > 30 | > 30
CN(C)CCC(c1ccccc1)c1ccccn1 (stereo unspecified) [PHENIRAMINE] | > 30 | > 30

SMILES | AC50 [1] [µM] | AC50 [2] [µM]
CC(C)[N+](C)(CCOC(=O)C1c2ccccc2Oc2ccccc21)C(C)C [PROPANTHELINE] | > 30 | > 30
Cc1cc2c(OCC(O)CNC(C)C)cccc2[nH]1 (stereo unspecified) [MEPINDOLOL] | > 30 | > 30
C[C@]12CCC(=O)C=C1CC[C@@H]1[C@@H]2[C@@H](O)C[C@@]2(C)[C@H]1CC[C@]2(O)C(=O)COC(=O)CCC(=O)O [HYDROCORTISONE HEMISUCCINATE ANHYDROUS] | > 30 | > 30
CCCCCCCCCCC[C@@H](C[C@@H]1OC(=O)[C@H]1CCCCCC)OC(=O)[C@H](CC(C)C)NC=O [ORLISTAT] | > 30 | > 30
O=C(O)CCCc1ccc(N(CCCl)CCCl)cc1 [CHLORAMBUCIL] | > 30 | > 30
C#C[C@]1(O)CC[C@H]2[C@@H]3CCC4=C(CCC(=O)C4)[C@H]3CC[C@@]21C [NORETHYNODREL] | > 30 | > 30
O=S(=O)(O)CCS [2-MERCAPTOETHANESULFONIC ACID] | > 30 | > 30
CC(C)COc1ccc(CNC(=O)N(Cc2ccc(F)cc2)C2CCN(C)CC2)cc1 [PIMAVANSERIN] | > 30 | > 30
CCCCCCCCCCCCCCCC(=O)OC/C=C(C)/C=C/C=C(C)/C=C/C1=C(C)CCCC1(C)C [VITAMIN A PALMITATE] | > 30 | > 30
CCCCCOc1ccc(-c2cc(-c3ccc(C(=O)N[C@H]4C[C@@H](O)[C@@H](O)NC(=O)[C@@H]5[C@@H](O)[C@@H](C)CN5C(=O)[C@H]([C@H](O)CC(N)=O)NC(=O)[C@H]([C@H](O)[C@@H](O)c5ccc(O)c(OS(=O)(=O)O)c5)NC(=O)[C@@H]5C[C@@H](O)CN5C(=O)[C@H]([C@@H](C)O)NC4=O)cc3)no2)cc1 [MICAFUNGIN] (X1-[Orn(4R-OH,5R-OH)]T[Hyp][hTyr(3S-OH,4S-OH,3'-OSO3H)][Gln(3R-OH)][Pro(3S-OH,4S-Me)]; lactam 1-C) | > 30 | > 30
NCCc1ccc(O)cc1 [TYRAMINE] | > 30 | > 30
CN(C)CCCN1C(=O)c2cc([N+](=O)[O-])ccc2Oc2ccccc21 | > 30 | > 30
C[C@]12CC[C@@H]3c4ccc(O)cc4CC[C@H]3[C@@H]1CC[C@@H]2OC(=O)CCC1CCCC1 [ESTRADIOL CYPIONATE] | > 30 | > 30
CCOc1cc(N)c(Cl)cc1C(=O)NCC1CN(Cc2ccc(F)cc2)CCO1 (stereo unspecified) [MOSAPRIDE] | > 30 | > 30
CCOc1ccc2ccccc2c1C(=O)N[C@@H]1C(=O)N2[C@@H]1SC(C)(C)[C@@H]2C(=O)O [NAFCILLIN] | > 30 | > 30
CCCCCCCCNC(C)C(O)c1ccc(SC(C)C)cc1 (stereo unspecified) [SULOCTIDIL] | 11 | > 30
